Measured values as given in ChEMBL document CHEMBL1150776, “Naturally occurring pentacyclic triterpenes as inhibitors of glycogen phosphorylase: synthesis, structure-activity relationships, and X-ray crystallographic studies” (J Med Chem, 2008).
Calls of active or inactive are those of the source. The calls are words filed in the database; no cut-off is given here.

The compounds below were run against T1, Glycogen phosphorylase, muscle form (Oryctolagus cuniculus) (UniProt P00489) (assay: Inhibition of rabbit muscle glycogen phosphorylase A assessed as phosphate release from glucose-1-phosphate at 2000 uM).
T1 sequence (whole entry): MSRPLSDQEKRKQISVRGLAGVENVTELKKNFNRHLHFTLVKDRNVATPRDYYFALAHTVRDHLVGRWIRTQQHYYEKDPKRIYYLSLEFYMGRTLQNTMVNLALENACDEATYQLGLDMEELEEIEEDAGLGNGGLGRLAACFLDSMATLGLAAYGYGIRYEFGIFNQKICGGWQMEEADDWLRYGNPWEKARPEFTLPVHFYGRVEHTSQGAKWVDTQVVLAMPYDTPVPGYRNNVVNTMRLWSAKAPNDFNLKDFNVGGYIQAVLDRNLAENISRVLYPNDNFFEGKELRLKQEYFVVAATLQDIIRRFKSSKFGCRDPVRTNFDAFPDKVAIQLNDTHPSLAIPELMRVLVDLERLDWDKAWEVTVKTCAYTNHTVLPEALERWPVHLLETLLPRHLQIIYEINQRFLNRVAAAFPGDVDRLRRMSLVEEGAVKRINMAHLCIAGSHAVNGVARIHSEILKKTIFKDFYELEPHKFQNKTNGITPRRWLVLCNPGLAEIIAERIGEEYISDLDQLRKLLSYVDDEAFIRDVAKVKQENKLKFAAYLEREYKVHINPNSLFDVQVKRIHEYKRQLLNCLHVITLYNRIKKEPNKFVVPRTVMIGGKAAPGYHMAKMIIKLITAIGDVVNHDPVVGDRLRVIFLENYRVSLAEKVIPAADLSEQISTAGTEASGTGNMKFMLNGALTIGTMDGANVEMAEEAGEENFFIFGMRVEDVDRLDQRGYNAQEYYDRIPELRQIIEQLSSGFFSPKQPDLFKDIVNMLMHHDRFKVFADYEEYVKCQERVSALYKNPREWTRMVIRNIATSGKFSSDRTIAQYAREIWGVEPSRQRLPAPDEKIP

Row | Compound | Activity
1 | C[C@H]1[C@H](C)CC[C@]2(C(=O)O[C@@H]3O[C@H](CO[C@@H]4O[C@H](CO)[C@@H](O[C@@H]5O[C@H](C)[C@H](O)[C@@H](O)[C@H]5O)[C@H](O)[C@H]4O)[C@@H](O)[C@H](O)[C@H]3O)CC[C@]3(C)C(=CC[C@@H]4[C@@]5(C)C[C@@H](O)[C@H](O)[C@@](C)(CO)[C@@H]5CC[C@]43C)[C@H]12 | inactive

Each compound was assayed against T1, Glycogen phosphorylase, muscle form (Oryctolagus cuniculus) (assay: (§1) Inhibition of rabbit muscle glycogen phosphorylase A assessed as phosphate release from glucose-1-phosphate).

Row | Compound | Activity
2 | C[C@H]1[C@H](C)CC[C@]2(C(=O)O[C@@H]3O[C@H](CO[C@@H]4O[C@H](CO)[C@@H](O[C@@H]5O[C@@H](C)[C@@H](O)[C@H](O)[C@@H]5O)[C@H](O)[C@H]4O)[C@@H](O)[C@H](O)[C@H]3O)CC[C@]3(C)C(=CC[C@@H]4[C@@]5(C)C[C@@H](O)[C@H](O)[C@@](C)(CO)[C@@H]5[C@H](O)C[C@]43C)[C@H]12 | inactive
3 | C[C@H]1[C@H](C)CC[C@]2(C(=O)O)CC[C@]3(C)C(=CC[C@@H]4[C@@]5(C)C[C@@H](O)[C@H](O)[C@@](C)(CO)[C@@H]5[C@H](O)C[C@]43C)[C@H]12 | inactive

What follows are compounds tested against T2, Glycogen phosphorylase, muscle form (Oryctolagus cuniculus, UniProt P00489) (assay: as §1).
T2 sequence (P00489 whole entry): T1 sequence (whole entry)

Row | Compound | IC50
4 | C[C@H]1[C@H](C)CC[C@]2(C(=O)O[C@@H]3O[C@H](CO)[C@@H](O)[C@H](O)[C@H]3O)CC[C@]3(C)C(=CC[C@@H]4[C@@]5(C)C[C@@H](O)[C@H](O)C(C)(C)[C@@H]5CC[C@]43C)[C@H]12 | 106 µM
5 | C=C(C)[C@@H]1CC[C@]2(C(=O)O)CC[C@]3(C)[C@H](CC[C@@H]4[C@@]5(C)CC[C@H](O)[C@@](C)(CO)[C@@H]5CC[C@]43C)[C@@H]12 | 16 µM
6 | C=C(C)[C@@H]1CC[C@]2(CO)CC[C@]3(C)[C@H](CC[C@@H]4[C@@]5(C)CC[C@H](O)C(C)(C)[C@@H]5CC[C@]43C)[C@@H]12 [BETULIN] | 17 µM
7 | CC1(C)[C@@H](O[C@H]2O[C@H](C(=O)O)[C@@H](O)[C@H](O)[C@H]2O[C@@H]2O[C@H](C(=O)O)[C@@H](O)[C@H](O)[C@H]2O)CC[C@]2(C)[C@H]3C(=O)C=C4[C@@H]5C[C@@](C)(C(=O)O)CC[C@]5(C)CC[C@@]4(C)[C@]3(C)CC[C@@H]12 [GLYCYRRHIZIN] | 822 µM
8 | C[C@H]1[C@H](C)CC[C@]2(C(=O)O[C@@H]3O[C@H](CO)[C@@H](O)[C@H](O)[C@H]3O)CC[C@]3(C)C(=CC[C@@H]4[C@@]5(C)CC[C@H](O)C(C)(C)[C@@H]5CC[C@]43C)[C@H]12 | 97 µM
9 | CC1(C)CC[C@]2(C(=O)O[C@@H]3O[C@H](CO)[C@@H](O)[C@H](O)[C@H]3O)CC[C@]3(C)C(=CC[C@@H]4[C@@]5(C)CC[C@H](O)C(C)(C)[C@@H]5CC[C@]43C)[C@@H]2C1 | 293 µM
10 | CC1(C)[C@@H](O)CC[C@]2(C)[C@H]3CC=C4[C@@H]5C[C@@](C)(C(=O)O)CC[C@]5(C)CC[C@@]4(C)[C@]3(C)CC[C@@H]12 | 82 µM
11 | C[C@H]1[C@H](C)CC[C@]2(C(=O)O)CC[C@]3(C)C(=CC[C@@H]4[C@@]5(C)CC[C@H](O)C(C)(C)[C@@H]5CC[C@]43C)[C@H]12 [URSOLIC ACID] | 9 µM
12 | C[C@H]1[C@H](C)CC[C@]2(C(=O)O)CC[C@]3(C)C(=CC[C@@H]4[C@@]5(C)CCC(=O)C(C)(C)[C@@H]5CC[C@]43C)[C@H]12 [URSONIC ACID] | 57 µM
13 | CC1(C)[C@@H](O)CC[C@]2(C)[C@H]3C(=O)C=C4[C@@H]5C[C@@](C)(C(=O)O)CC[C@]5(C)CC[C@@]4(C)[C@]3(C)CC[C@@H]12 [ENOXOLONE] | 66 µM
14 | C=C(C)[C@@H]1CC[C@]2(C(=O)O)CC[C@]3(C)[C@H](CC[C@@H]4[C@@]5(C)CC[C@H](O)C(C)(C)[C@@H]5CC[C@]43C)[C@@H]12 [BETULINIC ACID] | 43 µM
15 | C[C@H]1[C@H](C)CC[C@]2(C(=O)O)CC[C@]3(C)C(=CC[C@@H]4[C@@]5(C)CC[C@@H](O)C(C)(C)[C@@H]5CC[C@]43C)[C@H]12 | 19 µM
